Laboratory results: patent US20230047825A1, “ANTIMICROBIAL PEPTIDES” (priority 2019, published 2023)
Converted amounts (≈) assume the structure as drawn. Read-outs that look alike come from different tables or passages of the source. Where a SMILES comes first, the peptide text is derived from it.

How the values were obtained:
[1] = test system: Acinetobacter baumannii ATCC 17978; type: cell-based; conditions: in µg/mL; for MIC, Stability in serum (MH): Ab17978
[2] = test system: Klebsiella pneumoniae NCTC 13368; type: cell-based; conditions: KP13368, in µg/mL
VRE12201 = test: Antibacterial activity assay (broth microdilution MIC); type: cell-based, Enterococcus faecalis; conditions: medium and unit inferred
Text: (§1) Antibacterial activity assay.
The bacterial strains used are as in the above examples. A table of strains is provided below to aid understanding.

P. aeruginosa RP73 = test: as above; type: cell-based, Pseudomonas aeruginosa; conditions: in µg/mL
Method: as §1
Synergy experiments were performed following a checkerboard protocol.

human red blood cells = test: Haemolysis assay; conditions: red cells of human, 1 h
Method: Haemolysis assay. Haemolysis was tested by incubating titrations of AMPs in PBS with freshly collected human red blood cells for 1 hour at 37 C. Control wells were treated with 0.1% Triton-X-100 to ensure complete lysis, or PBS-only to represent no lysis. Samples were spun down to remove non-lysed cells and the OD^550 of the supernatant was measured using a Clariostar plate reader. The percentage of haemolysis was calculated as % haemolysis=(AP−AB)/(AC−AB)×100, where AP is the absorbance value for a known peptide concentration, AC is the absorbance of the 0.1% Triton-X-100 control, AB is the absorbance of the PBS control. Data presented are averages and standard error from three biological replicate experiments.
Methods: The natural AMP (termed AMP1) was modified to produce synthetic variants, AMPs 1a, 2a, 2b, 3a and 3b. Minimum inhibitory concentrations (MICs) were determined using the microbroth dilution assay with Mueller Hinton broth (MHB) or RPMI (with 5% FBS) and stability in serum was tested by conducting MICs in MHB containing 10% FBS. Synergy experiments were performed following a checkerboard protocol. Cytotoxicity was tested against HEK293 and HeLa immortalised human cell-lines using the XTT viability stain and by quantifying haemolysis of human red blood cells. Patch clamp analysis was performed using the Port-a-Patch® automated patch-clamp system on DPhPE/DPhPG (model for a Gram-negative plasma membrane) or DPhPG (Gram-positive) model membranes challenged with peptide. The murine lung infection model was performed using the agar bead model with Staphylococcus aureus strain NCTC 13616 (EMRSA-15).

[3] = test system: Escherichia coli NCTC 12923; type: cell-based; conditions: EC12923
[4] = test system: EMR Staphylococcus aureus-16 (EMRSA-16); type: cell-based; conditions: EMRSA16
Klebsiella pneumoniae M6 = type: cell-based
[5] = test system: Pseudomonas aeruginosa NCTC 13437; test: Antibacterial activity assay (broth microdilution MIC); type: cell-based; conditions: PA13437, in µg/mL
A549 = test: Cytotoxicity assay; type: cell-based; conditions: value printed in parentheses
[6] = test system: MS Staphylococcus aureus ATCC 9144; type: cell-based; conditions: MSSA9144
[7] = test system: Acinetobacter baumannii AYE; type: cell-based; conditions: AYE
C. albicans = test: MIC on initial panels, fungi; type: cell-based; conditions: unit inferred
HEK293 = test: Cytotoxicity assay (XTT); type: cell-based, human
Method: (§2) Cytotoxicity assay. HeLa and HEK293 cell lines were purchased from ECACC and cultured in Eagle's Minimum Essential Media (EMEM) containing glutamine, supplemented with 10% FBS and 1× non-essential amino acids (NEAA) at 37° C., 10% CO2. Cytotoxicity was measured by incubating starter cultures of cells for 24 hours in a 96 well plate, gently removing the supernatant and replacing it with dilutions of peptides and controls, incubating for a further 24 hours and then staining of the cells with the second generation tetrazolium dye, XTT. […]

[8] = test system: VR Enterococcus faecium NCTC 12204; test: Antibacterial activity assay (broth microdilution MIC); type: cell-based; conditions: VRE12204, in µg/mL
[9] = test system: Pseudomonas aeruginosa PA01; test: as above; type: cell-based
[10] = test system: EMR Staphylococcus aureus-15 (EMRSA-15); type: cell-based
Calu-3 = test: Cytotoxicity assay; type: cell-based; conditions: value printed in parentheses
[11] = test system: VS Enterococcus faecalis NCTC 775; test: Antibacterial activity assay (broth microdilution MIC); type: cell-based
HeLa = test: Cytotoxicity assay (XTT); type: cell-based, human; parameters: Toxicity HeLa: unit not given beside the values
Method: as §2

[12] = untitled table, medium/unit not given, values match RPMI of Table 2
[13] = medium and unit not given, in µg/mL
[14] = untitled table, medium/unit not given, values match RPMI of Table 2, in µg/mL
[15] = untitled table, medium/unit inferred, values match RPMI of Table 2

- MIC on initial panels ([1]; AB17978, medium and unit not given): 1
- MIC ([1]; AB17978, untitled table, medium/unit not given, values match RPMI of Table 2): 16
- MIC, Stability in serum (MH) ([1]; No serum): 1
- MIC, Stability in serum (MH) ([1]; Serum (10% fetal bovine serum)): 2-16
- MIC, Stability in serum (MH) ([2]; No serum): 8
- MIC, Stability in serum (MH) ([2]; Serum (10% fetal bovine serum)): 8-32
- MIC on initial panels ([2]; medium and unit not given): 8
- MIC [2, 12]: 32
- MIC on initial panels (VRE12201): 128 µg/mL (≈ 48.2 µM)
- MIC on initial panels (P. aeruginosa RP73; medium and unit not given): 16-64
- MIC (P. aeruginosa RP73; untitled table, medium/unit not given): 32-64
- MIC, Stability in serum (MH) ([3]; No serum): 1 µg/mL (≈ 0.377 µM)
- MIC, Stability in serum (MH) ([3]; Serum (10% fetal bovine serum)): 1 µg/mL (≈ 0.377 µM)
- MIC on initial panels [3, 13]: 1
- MIC [3, 14]: 8
- MIC on initial panels [4, 13]: 64
- MIC [4, 15]: 32 µg/mL (≈ 12.1 µM)
- MIC, Stability in serum (MH) (Klebsiella pneumoniae M6; No serum): 4 µg/mL (≈ 1.51 µM)
- MIC, Stability in serum (MH) (Klebsiella pneumoniae M6; Serum (10% fetal bovine serum)): 8 µg/mL (≈ 3.01 µM)
- MIC on initial panels (Klebsiella pneumoniae M6; [13]): 4
- MIC (Klebsiella pneumoniae M6; [14]): 32
- MIC, Stability in serum (MH) ([5]; No serum): 32
- MIC, Stability in serum (MH) ([5]; Serum (10% fetal bovine serum)): 32
- MIC on initial panels ([5]; medium and unit not given): 32
- MIC [5, 12]: >32
- MIC on initial panels ([6]; medium and unit inferred): 4 µg/mL (≈ 1.51 µM)
- MIC [6, 14]: 8
- MIC, Stability in serum (MH) ([7]; No serum): 1 µg/mL (≈ 0.377 µM)
- MIC, Stability in serum (MH) ([7]; Serum (10% fetal bovine serum)): 2 µg/mL (≈ 0.754 µM)
- MIC on initial panels [7, 13]: 1
- MIC [7, 14]: 8-32
- MIC on initial panels, Fungi (C. albicans): 8 µg/mL (≈ 3.01 µM)
- MIC on initial panels ([8]; medium and unit not given): 16
- MIC [8, 12]: 32-64
- MIC, Stability in serum (MH) ([9]; No serum, in µg/mL): 4
- MIC, Stability in serum (MH) ([9]; Serum (10% fetal bovine serum), in µg/mL): 16
- MIC on initial panels [9, 13]: 4
- MIC [9, 15]: 32 µg/mL (≈ 12.1 µM)
- MIC, Peptide concentration ([10]; EMR -15 (EMRSA-15)): 8 µg/mL (≈ 3.01 µM)
- MIC on initial panels ([10]; EMRSA15, medium and unit inferred): 32 µg/mL (≈ 12.1 µM)
- MIC ([10]; EMRSA15, untitled table, medium/unit inferred, values match RPMI of Table 2): 8 µg/mL (≈ 3.01 µM)
- MIC, Peptide concentration ([10]; Mueller-Hinton broth): 32 µg/mL (≈ 12.1 µM)
- MIC, Peptide concentration ([11]; Mueller-Hinton broth): 64 (NG) μg/ml
- MIC on initial panels ([11]; VSE775, medium and unit not given, in µg/mL): 64
Structure (SMILES): CC(C)C[C@@H](NC(=O)[C@@H](Cc1ccc(O)cc1)NC(=O)[C@@H](Cc1c[nH]cn1)NC(=O)[C@H](NC(=O)[C@@H](CC(C)C)NC(=O)[C@@H](C)NC(=O)[C@@H](C)NC(=O)[C@@H](CCCCN)NC(=O)CNC(=O)[C@@H](C)NC(=O)[C@@H](Cc1c[nH]cn1)NC(=O)[C@@H](CCCCN)NC(=O)CNC(=O)[C@@H](C)NC(=O)[C@@H](Cc1c[nH]cn1)NC(=O)[C@@H](C)NC(=O)[C@@H](C)NC(=O)[C@@H](CCCCN)NC(=O)[C@@H](CCCCN)NC(=O)[C@@H](Cc1ccccc1)NC(=O)[C@@H](Cc1ccccc1)NC(=O)[C@@H](CO)NC(=O)CNC(=O)[C@@H](Cc1c[nH]c2ccccc12)NC(=O)CN)[C@H](C)O)C(N)=O [D-pleurocidin-VA] (HELM PEPTIDE1{G.[dW].G.[dS].[dF].[dF].[dK].[dK].[dA].[dA].[dH].[dA].G.[dK].[dH].[dA].G.[dK].[dA].[dA].[dL].[dT].[dH].[dY].[dL].[am]}$$$$V2.0; N-terminus assumed)
- Toxicity HC50, Peptide concentration (human red blood cells): >>400 μg/ml
- Toxicity A549 (EC50), Peptide concentration (A549): (>250) μg/ml
- Toxicity HEK293 (HEK293; unit not given): 217.3 ± 46.5
- Toxicity HEK293 (EC50), Peptide concentration (HEK293; value printed in parentheses): (217.3 ± 46.5) μg/ml
- Toxicity Calu-3 (EC50), Peptide concentration (Calu-3): (>250) μg/ml
- Toxicity HeLa (HeLa; unit not given): 198.2 ± 10.2
- Toxicity HeLa (EC50), Peptide concentration (HeLa; value printed in parentheses): (198.2 ± 10.2) μg/ml
